# Data as given in US10597388B2, “Pyridazinone herbicides” (FMC CORPORATION, priority 2014, dated 2020).
# Assays:
# Assay in all cases: Test D controlled growth environment herbicide test, pre- and postemergence
# Type in all cases: in vivo
# [1] = system: buckwheat, wild (wild buckwheat, Polygonum convolvulus)
# Excerpt: (§1) Seeds of plant species selected from bluegrass (annual bluegrass, Poa annua), blackgrass (Alopecurus myosuroides), Canada thistle (Cirsium arvense), canarygrass (Phalaris minor), chickweed (common chickweed, Stellaria media), geranium, cutleaf (cutleaf geranium, Geranium dissectum), galium (catchweed bedstraw, Galium aparine), bromegrass, downy (downy bromegrass, Bromus tectorum), field poppy (Papaver rhoeas), field violet (Viola arvensis), foxtail, green (green foxtail, Setaria viridis), deadnettle (henbit deadnettle, Lamium amplexicaule), ryegrass, Italian (Italian ryegrass, Lolium multiflorum), kochia (Kochia scoparia), lambsquarters (Chenopodium album), oilseed rape (Brassica napus), pigweed (Amaranthus retroflexus), chamomile (scentless chamomile, Matricaria inodora), Russian thistle (Salsola kali), speedwell (bird's-eye speedwell, Veronica persica), barley, spring (spring barley, Hordeum vulgare), wheat, spring (spring wheat, Triticum aestivum), buckwheat, wild (wild buckwheat, Polygonum convolvulus), mustard, wild (wild mustard, Sinapis arvensis), oat, wild (wild oat, Avena fatua), radish, wild (wild radish, Raphanus raphanistrum), windgrass (Apera spica-venti), barley, winter (winter barley, Hordeum vulgare), and wheat, winter (winter wheat, Triticum aestivum) were planted into a silt loam soil and treated preemergence with test chemicals formulated in a non-phytotoxic solvent mixture which included a surfactant.
# (§2) At the same time, these species were planted in pots containing Redi-Earth® planting medium (Scotts Company, 14111 Scottslawn Road, Marysville, Ohio 43041) comprising spaghnum peat moss, vermiculite, wetting agent and starter nutrients and treated with postemergence applications of the test chemicals formulated in the same manner. Plants ranged in height from 2 to 18 cm (1- to 4-leaf stage). Treated plants and controls were maintained in a controlled growth environment for 14 to 21 d after which time all species were compared to controls and visually evaluated. Plant response ratings, summarized in Table D, are based on a scale of 0 to 100 where 0 is no effect and 100 is complete control. A dash (-) response means no test result.
# [2] = system: radish, wild (wild radish, Raphanus raphanistrum)
# Excerpt: as §1, §2
# [3] = system: bromegrass, downy (downy bromegrass, Bromus tectorum)
# Excerpt: as §1, §2
# kochia (Kochia scoparia) = system: kochia (Kochia scoparia)
# Excerpt: as §1, §2
# [4] = system: galium (catchweed bedstraw, Galium aparine)
# Excerpt: as §1, §2
# [5] = system: Russian thistle (Salsola kali)
# Excerpt: as §1, §2
# [6] = system: canarygrass (Phalaris minor)
# Excerpt: as §1, §2
# [7] = system: barley, winter (winter barley, Hordeum vulgare)
# Excerpt: as §1, §2
# [8] = system: field violet (Viola arvensis)
# Excerpt: as §1, §2
# [9] = system: pigweed (Amaranthus retroflexus)
# Excerpt: as §1, §2
# [10] = system: oat, wild (wild oat, Avena fatua)
# Excerpt: as §1, §2
# [11] = system: windgrass (Apera spica-venti)
# Excerpt: as §1, §2
# [12] = system: chickweed (common chickweed, Stellaria media)
# Excerpt: as §1, §2
# [13] = Postemergence, 31 g ai/ha, scale 0 to 100 (0 no effect, 100 complete control)
# [14] = Postemergence, 125 g ai/ha, visual rating on scale 0 (no effect) to 100 (complete control), 14 to 21 d
# [15] = Postemergence, 250 g ai/ha, scale 0 to 100 (0 no effect, 100 complete control)
# [16] = Preemergence, 62 g ai/ha, scale 0 to 100 (0 no effect, 100 complete control)
# [17] = Preemergence, 125 g ai/ha, scale 0 to 100 (0 no effect, 100 complete control)
# [18] = Preemergence, 250 g ai/ha, scale 0 to 100 (0 no effect, 100 complete control)
# [19] = postemergence, 62 g ai/ha, scale 0 to 100, 0 no effect, 100 complete control
compound,measurement,setting,value
Cc1ccc2ccccc2c1-c1c(O)c(C)nn(C)c1=O [Compound 59],"Buckwheat, Wild plant response rating",[1]; [13],65
same,"Plant response rating, Buckwheat, Wild",[1]; [14],100
same,"Plant response rating, Buckwheat, Wild",[1]; [15],100
same,"Plant response rating (scale of 0 to 100), Buckwheat, Wild","[1]; Preemergence, 31 g ai/ha",20
same,"Plant response rating, Buckwheat, Wild",[1]; [16],65
same,"Plant response rating, Buckwheat, Wild",[1]; [17],100
same,"Plant response rating, Buckwheat, Wild",[1]; [18],95
same,"Plant response rating, Buckwheat, Wild",[1]; [19],100
same,"Radish, Wild plant response rating",[2]; [13],95
same,"Plant response rating, Radish, Wild",[2]; [14],100
same,"Plant response rating, Radish, Wild",[2]; [15],100
same,"Plant response rating, Radish, Wild",[2]; [16],85
same,"Plant response rating, Radish, Wild",[2]; [17],95
same,"Plant response rating, Radish, Wild",[2]; [18],100
same,"Plant response rating, Radish, Wild",[2]; [19],95
same,"Bromegrass, Downy plant response rating",[3]; [13],35
same,"Plant response rating, Bromegrass, Downy",[3]; [14],70
same,"Plant response rating, Bromegrass, Downy",[3]; [15],85
same,"Plant response rating (scale of 0 to 100), Bromegrass, Downy","[3]; Preemergence, 31 g ai/ha",75
same,"Plant response rating, Bromegrass, Downy",[3]; [16],85
same,"Plant response rating, Bromegrass, Downy",[3]; [17],90
same,"Plant response rating, Bromegrass, Downy",[3]; [18],95
same,"Plant response rating, Bromegrass, Downy",[3]; [19],70
same,Kochia plant response rating,kochia (Kochia scoparia); [13],95
same,"Plant response rating, Kochia",kochia (Kochia scoparia); [14],95
same,"Plant response rating, Kochia",kochia (Kochia scoparia); [15],100
same,"Plant response rating (scale of 0 to 100), Kochia","kochia (Kochia scoparia); Preemergence, 31 g ai/ha",20
same,"Plant response rating, Kochia",kochia (Kochia scoparia); [16],60
same,"Plant response rating, Kochia",kochia (Kochia scoparia); [17],95
same,"Plant response rating, Kochia",kochia (Kochia scoparia); [18],100
same,"Plant response rating, Kochia",kochia (Kochia scoparia); [19],95
same,Galium plant response rating,[4]; [13],100
same,"Plant response rating, Galium",[4]; [14],100
same,"Plant response rating, Galium",[4]; [15],100
same,"Plant response rating (scale of 0 to 100), Galium","[4]; Preemergence, 31 g ai/ha",95
same,"Plant response rating, Galium",[4]; [16],95
same,"Plant response rating, Galium",[4]; [17],100
same,"Plant response rating, Galium",[4]; [18],100
same,"Plant response rating, Galium",[4]; [19],100
same,Russian Thistle plant response rating,[5]; [13],80
same,"Plant response rating, Russian Thistle",[5]; [14],85
same,"Plant response rating, Russian Thistle",[5]; [15],85
same,"Plant response rating (scale of 0 to 100), Russian Thistle","[5]; Preemergence, 31 g ai/ha",40
same,"Plant response rating, Russian Thistle",[5]; [16],50
same,"Plant response rating, Russian Thistle",[5]; [17],80
same,"Plant response rating, Russian Thistle",[5]; [18],90
same,"Plant response rating, Russian Thistle",[5]; [19],80
same,Canarygrass plant response rating,[6]; [13],75
same,"Plant response rating, Canarygrass",[6]; [14],90
same,"Plant response rating, Canarygrass",[6]; [15],90
same,"Plant response rating (scale of 0 to 100), Canarygrass","[6]; Preemergence, 31 g ai/ha",80
same,"Plant response rating, Canarygrass",[6]; [16],90
same,"Plant response rating, Canarygrass",[6]; [17],95
same,"Plant response rating, Canarygrass",[6]; [18],100
same,"Plant response rating, Canarygrass",[6]; [19],80
same,"Barley, Winter plant response rating",[7]; [13],20
same,"Plant response rating, Barley, Winter",[7]; [14],45
same,"Plant response rating, Barley, Winter",[7]; [15],60
same,"Plant response rating (scale of 0 to 100), Barley, Winter","[7]; Preemergence, 31 g ai/ha",15
same,"Plant response rating, Barley, Winter",[7]; [16],25
same,"Plant response rating, Barley, Winter",[7]; [17],40
same,"Plant response rating, Barley, Winter",[7]; [18],45
same,"Plant response rating, Barley, Winter",[7]; [19],30
same,Field Violet plant response rating,[8]; [13],75
same,"Plant response rating, Field Violet",[8]; [14],95
same,"Plant response rating, Field Violet",[8]; [15],95
same,"Plant response rating (scale of 0 to 100), Field Violet","[8]; Preemergence, 31 g ai/ha",80
same,"Plant response rating, Field Violet",[8]; [16],90
same,"Plant response rating, Field Violet",[8]; [17],95
same,"Plant response rating, Field Violet",[8]; [18],100
same,"Plant response rating, Field Violet",[8]; [19],80
same,Pigweed plant response rating,[9]; [13],80
same,"Plant response rating, Pigweed",[9]; [14],100
same,"Plant response rating, Pigweed",[9]; [15],100
same,"Plant response rating (scale of 0 to 100), Pigweed","[9]; Preemergence, 31 g ai/ha",95
same,"Plant response rating, Pigweed",[9]; [16],100
same,"Plant response rating, Pigweed",[9]; [17],100
same,"Plant response rating, Pigweed",[9]; [18],100
same,"Plant response rating, Pigweed",[9]; [19],85
same,"Oat, Wild plant response rating",[10]; [13],80
same,"Plant response rating, Oat, Wild",[10]; [14],95
same,"Plant response rating, Oat, Wild",[10]; [15],98
same,"Plant response rating (scale of 0 to 100), Oat, Wild","[10]; Preemergence, 31 g ai/ha",90
same,"Plant response rating, Oat, Wild",[10]; [16],90
same,"Plant response rating, Oat, Wild",[10]; [17],95
same,"Plant response rating, Oat, Wild",[10]; [18],100
same,"Plant response rating, Oat, Wild",[10]; [19],90
same,Windgrass plant response rating,[11]; [13],75
same,"Plant response rating, Windgrass",[11]; [14],80
same,"Plant response rating, Windgrass",[11]; [15],85
same,"Plant response rating (scale of 0 to 100), Windgrass","[11]; Preemergence, 31 g ai/ha",85
same,"Plant response rating, Windgrass",[11]; [16],85
same,"Plant response rating, Windgrass",[11]; [17],100
same,"Plant response rating, Windgrass",[11]; [18],100
same,"Plant response rating, Windgrass",[11]; [19],80
same,Chickweed plant response rating,[12]; [13],100
same,"Plant response rating, Chickweed",[12]; [14],100
same,"Plant response rating, Chickweed",[12]; [15],100
same,"Plant response rating (scale of 0 to 100), Chickweed","[12]; Preemergence, 31 g ai/ha",100
same,"Plant response rating, Chickweed",[12]; [16],100
same,"Plant response rating, Chickweed",[12]; [17],100
same,"Plant response rating, Chickweed",[12]; [18],100
same,"Plant response rating, Chickweed",[12]; [19],98
